Data as given in article PMC9304322, “Targeting retinoic acid receptor alpha-corepressor interaction activates chaperone-mediated autophagy and protects against retinal degeneration” (Nature Communications, 2022).
Values joined by “and” are separate entries in the source; they are usually repeats but may differ in a detail not shown here. Equal entries are not always repeated.

Experiments:
[1] = system: NIH3T3 cells stably expressing the mCherry-GFP-LC3 reporter; experiment: Macroautophagy activity, mCherry-GFP-LC3 reporter; assay type: cell-based, mouse
Procedure: Cells were transduced with a lentiviral vector expressing mCherry-GFP-LC3[35], fixed and flux determined as the conversion of dual fluorescence puncta (autophagosomes) into only red fluorescent puncta (autolysosomes). Flux was also measured by immunoblot for LC3 in cells incubated for 6 h with 20 mM NH4Cl/100 μM leupeptin, by discounting the intensity of LC3 in non-treated cells from that in cells treated with the inhibitors.

[2] = system: NIH3T3 stably expressing the KFERQ-PS-Dendra; experiment: CMA activity, KFERQ-PS-Dendra fluorescent reporter in NIH3T3 mouse fibroblasts; assay type: cell-based; design: CMA activity (Fig. 1d), MEAN / CMA activity (Fig. 1e-g), mean / CMA activity (Fig. 1d), individual experiments / CMA activity, mean (Fig. S2c, second panel) / CMA activity, mean (Fig. S2c, first panel) / CMA activity, mean (Fig. S2c, third panel): unit not given here; conditions: for CMA activity (Fig. 1e-g), mean: n = 4; for CMA activity, mean (Fig. S2c, first panel) / CMA activity, mean (Fig. S2c, second panel) / CMA activity, mean (Fig. S2c, third panel): compound and cell type of panel not shown
Procedure: Cells were transduced with lentivirus carrying the KFERQ-PS-Dendra reporter as before. Cells were photoactivated by exposure to a 3.5 mA (current constant) light emitting diode (LED: Norlux, 405 nm) for 3 min and then plated in glass-bottom 96 well plates. At the desired times, cells were fixed with 4% PFA and imaged using high-content microscopy (Operetta system, Perkin Elmer). Images were quantified using the manufacturer’s software in a minimum of 1,200 cells in 9 independent fields per well. […] This was particularly important in the case of primary human cells where the efficiency of transduction was ~65%. To avoid confounding effects for drug-induced changes in cell volume or adherence to the plate that could bring a fraction of the cells per field outside of focus, we set a threshold to count only […] that have at least 1/10 of the average number of […] detected in the untreated wells for each cell type (3–4 puncta/cell in the case of NIH3T3 and N2a cells and 5 puncta/cell in primary human fibroblasts).

[3] = system: NIH3T3; experiment: Intracellular proteolysis of long half-life proteins; assay type: cell-based, mouse
Procedure: Confluent cells were labelled with [^3H]leucine (2μCi/ml) (NEN-PerkinElmer Life Sciences) for 48 h and then extensively washed and maintained in medium with an excess of unlabeled leucine. Proteolysis was calculated from aliquots of the medium taken at different times and precipitated in trichloroacetic acid, as the amount of acid-precipitable radioactivity transformed to acid-soluble radioactivity at each time. Where indicated cell were treated during the chase with […] leupeptin (Sigma, #108975) and […] NH4Cl (to determine lysosomal degradation) or with 100 μm MRT 68921 dihydrochloride (Tocris, #5780) (to determine macroautophagy degradation).

[4] = c0 = 2 (axis unlabelled; ANOVA calls row factor Time)
[5] = concentration 10 (unit not given)
[6] = concentration 15 (unit not given)
[7] = concentration 20 (unit not given)
[8] = concentration 25 (unit not given)
[9] = concentration 30 (unit not given)
[10] = concentration 40 (unit not given)
[11] = concentration 50 (unit not given)

Clc1ccc2c(c1)OCC(c1ccc(-c3ccccc3)cc1)=N2 [CA39]
effect on macroautophagy ([1]; NIH3T3, MRT-sensitive proteolysis, LC3-II flux, mCherry-GFP-LC3 reporter): did not have the inhibitory effect on macroautophagy | APG (Fig. S3e) [1, 4]: 3.494 | AUT (Fig. S3e) [1, 4]: 0.8582 | AV (Fig. S3e) [1, 4]: 4.352 | APG (Fig. S3e) ([1]; c0 = 5 (axis unlabelled)): 2.288 | AUT (Fig. S3e) ([1]; c0 = 5 (axis unlabelled)): 1.522 | AV (Fig. S3e) ([1]; c0 = 5 (axis unlabelled)): 3.81 | APG (Fig. S3e) ([1]; c0 = 10 (axis unlabelled)): 2.801 | AUT (Fig. S3e) ([1]; c0 = 10 (axis unlabelled)): 1.622 | AV (Fig. S3e) ([1]; c0 = 10 (axis unlabelled)): 4.423 | APG (Fig. S3e) ([1]; c0 = 15 (axis unlabelled)): 3.21 | AUT (Fig. S3e) ([1]; c0 = 15 (axis unlabelled)): 1.42 | AV (Fig. S3e) ([1]; c0 = 15 (axis unlabelled)): 4.63 | APG (Fig. S3e) ([1]; c0 = 20 (axis unlabelled)): 2.614 | AUT (Fig. S3e) ([1]; c0 = 20 (axis unlabelled)): 2.2085 | AV (Fig. S3e) ([1]; c0 = 20 (axis unlabelled)): 4.823 | APG (Fig. S3e) ([1]; c0 = 25 (axis unlabelled)): 2.9327 | AUT (Fig. S3e) ([1]; c0 = 25 (axis unlabelled)): 2.406 | AV (Fig. S3e) ([1]; c0 = 25 (axis unlabelled)): 5.339 | APG (Fig. S3e) ([1]; c0 = 30 (axis unlabelled)): 1.904 | AUT (Fig. S3e) ([1]; c0 = 30 (axis unlabelled)): 2.071 | AV (Fig. S3e) ([1]; c0 = 30 (axis unlabelled)): 3.975 | APG (Fig. S3e) ([1]; c0 = 40 (axis unlabelled)): 3.037 | AUT (Fig. S3e) ([1]; c0 = 40 (axis unlabelled)): 2.167 | AV (Fig. S3e) ([1]; c0 = 40 (axis unlabelled)): 5.204 | APG (Fig. S3e) ([1]; c0 = 50 (axis unlabelled)): 3.658 | AUT (Fig. S3e) ([1]; c0 = 50 (axis unlabelled)): 0.5267 | AV (Fig. S3e) ([1]; c0 = 50 (axis unlabelled)): 4.185 | CMA activity (Fig. 1d), MEAN ([2]; 20 μM of each compound, n = 3 independent experiments): 4.580 | CMA activity (Fig. 1d), individual experiments ([2]; 20 μM of each compound, single experiments): 5.482 and 4.270 and 3.988 | CMA activity (Fig. 1e-g), mean ([2]; 12h, concentration 0.02 (unit not given)): 3.045 | CMA activity (Fig. 1e-g), mean ([2]; 12h, concentration 0.2): 3.489 | CMA activity (Fig. 1e-g), mean ([2]; 12h, concentration 2): 3.493 | CMA activity (Fig. 1e-g), mean ([2]; 12h, concentration 5): 8.168 | CMA activity (Fig. 1e-g), mean ([2]; 12h, concentration 10): 10.4134 | CMA activity (Fig. 1e-g), mean ([2]; 12h, concentration 20): 22.9828 | CMA activity (Fig. 1e-g), mean ([2]; 12h, concentration 30): 30.7253 | CMA activity (Fig. 1e-g), mean ([2]; 12h, concentration 40): 33.0782 | CMA activity (Fig. 1e-g), mean ([2]; 12h, concentration 50): 21.8692 | CMA activity (Fig. 1e-g), mean ([2]; 24h, concentration 0.02): 3.576 | CMA activity (Fig. 1e-g), mean ([2]; 24h, concentration 0.2): 3.419 | CMA activity (Fig. 1e-g), mean ([2]; 24h, concentration 2): 5.488 | CMA activity (Fig. 1e-g), mean ([2]; 24h, concentration 5): 11.6083 | CMA activity (Fig. 1e-g), mean ([2]; 24h, concentration 10): 17.8717 | CMA activity (Fig. 1e-g), mean ([2]; 24h, concentration 20): 34.1318 | CMA activity (Fig. 1e-g), mean ([2]; 24h, concentration 30): 35.2802 | CMA activity (Fig. 1e-g), mean ([2]; 24h, concentration 40): 50.2311 | CMA activity (Fig. 1e-g), mean ([2]; 24h, concentration 50): 60.1885 | CMA activity (Fig. 1h-j), mean, untreated (0) = 1 ([2]; concentration 0.2, 12+12w (12 h, then 12 h after washing out)): 1.104 | CMA activity (Fig. 1h-j), mean, untreated (0) = 1 ([2]; concentration 0.2, 12h): 0.9726 | CMA activity (Fig. 1h-j), mean, untreated (0) = 1 ([2]; concentration 0.2, 24h): 1.209 | CMA activity (Fig. 1h-j), mean, untreated (0) = 1 ([2]; concentration 2, 12+12w): 1.202 | CMA activity (Fig. 1h-j), mean, untreated (0) = 1 ([2]; concentration 2, 12h): 0.9735 | CMA activity (Fig. 1h-j), mean, untreated (0) = 1 ([2]; concentration 2, 24h): 1.941 | CMA activity (Fig. 1h-j), mean, untreated (0) = 1 ([2]; concentration 5, 12+12w): 1.546 | CMA activity (Fig. 1h-j), mean, untreated (0) = 1 ([2]; concentration 5, 12h): 2.277 | CMA activity (Fig. 1h-j), mean, untreated (0) = 1 ([2]; concentration 5, 24h): 4.106 | CMA activity, mean (Fig. S2c, first panel) [2, 5]: 74.2616 | CMA activity, mean (Fig. S2c, second panel) [2, 5]: 29.9019 | CMA activity, mean (Fig. S2c, third panel) [2, 5]: 74.2616 | CMA activity (Fig. 1h-j), mean, untreated (0) = 1 ([2]; concentration 10, 12+12w): 2.775 | CMA activity (Fig. 1h-j), mean, untreated (0) = 1 ([2]; concentration 10, 12h): 2.902 | CMA activity (Fig. 1h-j), mean, untreated (0) = 1 ([2]; concentration 10, 24h): 6.322 | CMA activity, mean (Fig. S2c, first panel) [2, 6]: 68.2986 | CMA activity, mean (Fig. S2c, second panel) [2, 6]: 41.4399 | CMA activity, mean (Fig. S2c, third panel) [2, 6]: 68.2986 | CMA activity, mean (Fig. S2c, first panel) [2, 7]: 74.8347 | CMA activity, mean (Fig. S2c, second panel) [2, 7]: 54.0516 | CMA activity, mean (Fig. S2c, third panel) [2, 7]: 74.8347 | CMA activity (Fig. 1h-j), mean, untreated (0) = 1 ([2]; concentration 20, 12+12w): 4.843 | CMA activity (Fig. 1h-j), mean, untreated (0) = 1 ([2]; concentration 20, 12h): 6.406 | CMA activity (Fig. 1h-j), mean, untreated (0) = 1 ([2]; concentration 20, 24h): 12.0736 | CMA activity, mean (Fig. S2c, first panel) [2, 8]: 71.1281 | CMA activity, mean (Fig. S2c, second panel) [2, 8]: 57.8636 | CMA activity, mean (Fig. S2c, third panel) [2, 8]: 71.1281 | CMA activity, mean (Fig. S2c, first panel) [2, 9]: 76.3164 | CMA activity, mean (Fig. S2c, second panel) [2, 9]: 40.4368 | CMA activity, mean (Fig. S2c, third panel) [2, 9]: 76.3164 | CMA activity (Fig. 1h-j), mean, untreated (0) = 1 ([2]; concentration 30, 12+12w): 9.0956 | CMA activity (Fig. 1h-j), mean, untreated (0) = 1 ([2]; concentration 30, 12h): 8.564 | CMA activity (Fig. 1h-j), mean, untreated (0) = 1 ([2]; concentration 30, 24h): 12.4798 | CMA activity, mean (Fig. S2c, first panel) [2, 10]: 78.3071 | CMA activity, mean (Fig. S2c, second panel) [2, 10]: 58.9165 | CMA activity, mean (Fig. S2c, third panel) [2, 10]: 78.3071 | CMA activity, mean (Fig. S2c, first panel) [2, 11]: 53.1619 | CMA activity, mean (Fig. S2c, second panel) [2, 11]: 68.5848 | CMA activity, mean (Fig. S2c, third panel) [2, 11]: 53.1619 | CMA activation compared with AR7 ([2]; fluorescent CMA reporter in mouse fibroblasts, basal and inducible CMA): > 40 % CMA of AR7 | toxicity in cells ([2]; mouse fibroblasts): without noticeable toxicity | duration of the increase in degradation of long-lived proteins ([3]; NIH3T3, 10 μM): remained upregulated 24 h | Lysosomal proteolysis, Mean (Fig. S3c) ([3]; Time 6): 2.60 | Lysosomal proteolysis, Mean (Fig. S3c) ([3]; Time 12): 7.36
